Compound	melting point [°C]
Nc1ccc2c(c1)OCC(=O)N2	217 to 219
N#Cc1cccnc1NCc1ccccc1Cl	111 to 113
Cc1c(N)cccc1C(N)=O	173 to 175
O=C(O)c1ccc(Cl)c(S(=O)(=O)N(Cc2ccccc2)c2cccc(C(F)(F)F)c2)c1	201 to 203
Nc1ccccc1NC(=O)N1CCCC1	127 to 129
Cc1ccc(S(=O)(=O)OI(O)c2ccccc2)cc1	134 to 136
Nc1cccc(N2CCOC2=O)c1	152 to 154
Nc1cccc(C(=O)Nc2ccc(Br)cn2)c1	153 to 155
CC(NC(=O)CCl)c1ccco1 (centres undefined)	63 to 65
COC(=O)Cc1cc(O)n[nH]1	143 to 145
Cc1ccccc1-c1csc(N)n1	80 to 82
CCn1nccc1C=CC(=O)O	151 to 153
OCc1nnc(-c2ccccc2Cl)o1	101 to 103
OC(CC1COCCN1)c1cccs1 (centres undefined)	109 to 111
CC(=O)Nc1ccc(N2C(=O)c3ccc(C(=O)O)cc3C2=O)cc1	379 to 381
Cn1ccnc1C(O)(c1nccn1C)C1CC1	166 to 168
CC1(C)Cc2c(sc(N)c2C#N)C(C)(C)N1	197 to 199
O=Cc1ccc(Br)cc1[N+](=O)[O-]	95 to 100
Cc1c(S(=O)(=O)Cl)cnn1-c1ccc(Cl)cc1	119 to 121
O=C(O)C(=O)Cc1ccc(Cl)c(Cl)c1	169 to 171
CN(C)S(=O)(=O)c1ccc(Cl)nc1	117 to 119
CC(C)(C(=O)O)c1cccc(C#N)c1	91 to 93
COc1cccc(CN2C(=O)NC(=O)C2=O)c1	139 to 141
CCOC(=O)c1oc2ccc(Br)cc2c1C	89 to 91

Compound	melting point [°C]
COc1cccc(C(=O)c2cccnc2)c1	72 to 74
Cc1cc(Cl)cc(N)c1I	48 to 50
N#CCc1ncc(C(F)(F)F)cc1Cl	34 to 36
CC1(C)CNc2ccccc2S1	41 to 43
c1coc(-c2nc(C3CCCCC3)n[nH]2)c1	147 to 149
Oc1ccc2oc3c(c2c1)CCCC3	103 to 105
CC(C)(C)c1ccc(C(=O)Nc2ccccc2N)cc1	175 to 177
Clc1ccc2c(n1)CCC2	69 to 71
C#Cc1nc2ccccc2n1C	82 to 84
C#CCNC(=O)Nc1cccc([N+](=O)[O-])c1	173 to 175
Cc1cc(O)nc(NN)n1	213 to 215
O=C(O)C1CCN(c2cccc(Br)c2)C1=O (centres undefined)	144 to 146
Cc1cc(C)n2c(C=O)cnc2n1	169 to 171
O=C(NCCCN1CCCC1)OCC(F)(F)F	36 to 38
CCCn1c(C)c(C(=O)O)c2cc(OC)ccc21	171 to 173
CCCNS(=O)(=O)c1cccc(C(=O)O)c1	199 to 201
COC(=O)NC(C(=O)O)C(C)C (centres undefined)	83 to 85
CCOC(OCC)c1nnc[nH]1	59 to 61
CN(C)c1ncc(Br)cc1C(=O)O	143 to 145
CC(C)(C)c1cc(=O)[nH]c(C(C)(C)C)n1	163 to 165
Cc1[nH]c(=O)c(C(=O)O)cc1-c1ccc(O)cc1	296 to 298
COc1ccc(-n2ccc(C(=O)O)n2)cc1	182 to 184
CCC(N)C(=O)NC(CC)c1ccc(C)cc1 (centres undefined)	59 to 61
NNc1nccnc1Cl	153 to 155

Compound	melting point [°C]
NC(=O)Nc1ccc(CC(=O)O)cc1	179 to 182
Cc1ccc(-c2cnnc(N)n2)o1	274 to 276
CC(Cl)C(=O)NC(C)c1ccc2c(c1)CCCC2 (centres undefined)	106 to 108
O=C1CCC(=O)N1CC1CO1 (centres undefined)	61 to 63
Nc1ccc(-n2cncn2)c(C(F)(F)F)c1	127 to 129
COc1ccc(Cn2nccc2N)cc1OC	< 17
NC(CC(=O)O)c1cc(Cl)cc(Cl)c1 (centres undefined)	205 to 207
CC(C)CNc1c(N)n(CC(C)C)c(=O)[nH]c1=O	197 to 199
CC(C)(C)OC(=O)N1CCC(C(=O)NN)CC1	98 to 100
Cc1cc(Br)ccc1SCC(=O)O	125 to 127
O=[N+]([O-])c1cccc2c1CCN2	111 to 113
CC(C)CC(C(=O)O)N1C(=O)c2ccccc2C1=O (centres undefined)	119 to 121
Nc1ccc(O)c(S(N)(=O)=O)c1	169 to 171
COc1cccc(C(N)=O)c1O	155 to 157
O=c1[nH]c(S)nc2ccc(F)cc12	345 to 347
O=C1COc2ccc(C(F)(F)F)cc2N1	165 to 167
CC1CCc2sc(C(=O)NN)cc2C1 (centres undefined)	122 to 124
O=C(c1ccccc1)c1ncccn1	79 to 81
CS(=O)(=O)Cc1nc(CCl)cs1	80 to 82
CS(=O)(=O)Nc1ccccc1F	75 to 77
O=C1Nc2c(Cl)cc(Br)cc2C1=O	225 to 227
COc1ccc2[nH]c(C)c(C(=O)CCl)c2c1	224 to 226
CN(Cc1ccccc1)S(=O)(=O)c1ccc(N)cc1	127 to 131
O=c1[nH]c(-c2ccccn2)no1	198 to 200

Compound	melting point [°C]
CC(=O)c1ccc(SCC(=O)O)cc1F	138 to 140
CS(=O)(=O)CBr	34 to 36
O=S(=O)(c1ccc(Cl)cc1)N1CCNCC1	99 to 103
COc1ccccc1-c1nnc(CCl)o1	86 to 88
NCC(O)COc1ccc(C(F)(F)F)cc1 (centres undefined)	98 to 100
CC(C)CC(=O)Nc1ccc(Cl)c(C(=O)O)c1	174 to 176
Nc1ccc(CNC(=O)c2ccc(C(F)(F)F)cc2)cc1	163 to 165
O=C(O)c1cc(Br)cc([N+](=O)[O-])c1Cl	226 to 228
CC(C)(C)c1ccc(Oc2ccc(C(=O)O)cn2)cc1	143 to 145
CCCCCCOc1ccc(CO)cc1	32 to 34
COCc1ccccc1S(N)(=O)=O	59 to 61
COc1nc(N(C)C)sc1C=O	69 to 71
CCOC(=O)c1ccn2nc3ncccc3c2n1	209 to 211
NNc1ccc(S(=O)(=O)C(F)(F)F)cc1	93 to 95
CC(C)(C)C(=O)Cn1cc(C(=O)O)nn1	198 to 200
O=C(O)c1ccc(=O)n(-c2ccc(F)cc2)n1	239 to 241
CC(C)(c1ccccc1)c1nnc(N)s1	149 to 151
Cc1cccc(C(=O)CC#N)c1C	56 to 58
N#CCNc1cccc(F)c1	39 to 41
CC(C)=C(C)C(=O)O	68 to 70
c1ccc2[nH]c(Cc3nc4ccccc4s3)nc2c1	194 to 196
CC(=O)N(C)c1nc(CCl)cs1	139 to 141
COC(=O)C1=NOC(C(=O)O)C1 (centres undefined)	83 to 85
COc1ccc(-c2cc(C(=O)O)[nH]n2)cc1	209 to 211

Compound	melting point [°C]
Nc1ccc2c(c1)S(=O)(=O)NC2=O	279 to 281
Cc1ccc(C(N)=O)n1C	152 to 154
COc1cc(C2(C(=O)O)CC2)ccc1C	127 to 129
CC(C)(C)OC(=O)N1CCc2cc(N)ccc21	84 to 86
Cc1nc(-c2cc3c(s2)CCNC3)cs1	111 to 113
O=C(O)c1cccc(NS(=O)(=O)c2ccc(Cl)c(Cl)c2)c1	254 to 256
O=C(O)c1cc(-c2cccs2)nc2ccccc12	199 to 201
O=C(O)c1ccccc1OCc1ccc(Br)cc1	119 to 121
O=c1cc2c(n[nH]1)CCC2	209 to 211
Cc1cc(C)c2nc(Cl)cc(C)c2c1	128 to 132
CCn1c(CCl)nc2cc(S(=O)(=O)N3CCCCC3)ccc21	234 to 236
Cn1c(=O)c2c(=O)cc(N)[nH]c2n(C)c1=O	316 to 318
O=C(O)Cc1cccc(OCc2ccccc2Cl)c1	64 to 66
CC(=O)N(C)c1ccc(S(N)(=O)=O)cc1	153 to 155
Cc1cc(C(=O)O)c2ccc(Br)cc2n1	289 to 291
COc1cc(C)sc1C(=O)O	159 to 161
Cc1cc2c(=O)[nH]cnc2s1	258 to 260
NC(=S)Nc1cc(F)cc(F)c1	149 to 151
Cc1ncc(CO)c(C)n1	52 to 54
CC(=O)Nc1cccc(N2C(=O)C=CC2=O)c1	185 to 187
COc1ccccc1CC(C)=CC(=O)O	96 to 98
CN1N=C(C(N)=O)CCC1=O	169 to 171
COC(=O)c1coc(C(=O)CCl)c1	97 to 99
Nc1cc(S(=O)(=O)N2CCOCC2)ccc1Cl	177 to 179

Compound	melting point [°C]
O=S(=O)(Cl)Cc1cc(-c2ccc(F)cc2)no1	108 to 110
CN(C(=O)C(C)(C)C)c1ccc(O)cc1	189 to 191
Nc1ccc(-c2csc(N3CCOCC3)n2)cc1	174 to 176
CNCC(O)CN1CCCC1=O (centres undefined)	88 to 90
O=C(O)CN1CCOc2ccc(Cl)cc21	156 to 158
O=C1OCC=C1Br	53 to 55
CCOCc1ccc(CNC(=O)CCl)cc1	86 to 88
O=C(Cc1ccccn1)c1ccc(Cl)cc1	99 to 101
CC(C)(C(=O)O)c1ccc([N+](=O)[O-])cc1	129 to 131
CC(Cl)C(=O)Nc1c(F)c(F)c(F)c(F)c1F (centres undefined)	123 to 125
Nc1cc(N2CCCS2(=O)=O)ccc1Cl	139 to 141
NNC(=O)NCc1ccc(Cl)cc1	163 to 165
COc1ccc2nc(Sc3ncccc3C(=O)O)[nH]c2c1	219 to 221
O=C(NCc1ccccc1)c1ccnc(Cl)c1	99 to 101
CCOC(=O)c1c(NC(=O)CCl)sc(C(=O)OC(C)(C)C)c1C	168 to 170
O=C1Nc2c(F)ccc(Cl)c2C1=O	279 to 281
CN(C)C(=O)N1CCCC(C(=O)O)C1 (centres undefined)	123 to 125
O=c1cc(-c2ccccc2)c2ccccc2[nH]1	263 to 265
CC(=O)c1nnn(-c2ccc(C)cc2)c1C	111 to 113
Nn1c(S)nnc1C1CCOCC1	177 to 179
NC(=O)c1c[nH]nc1-c1ccccc1	187 to 189
Cc1ccn2c(C=O)cnc2c1	80 to 82
Cc1ccc(N)c(OCC(=O)N(C)C)c1	83 to 85
Cc1cc(C)n2ncc(C(N)=NO)c2n1	227 to 229
